Assays:
[1] = tested on: genes involved in cholesterol homeostasis; test: mRNA expression in mouse brain after voriconazole; format: in vivo, C57/B6 J mice; settings: 5 daily i.p. injections 60 mg/kg
Description: The mice were sacrificed by cervical dislocation.
Total RNA was obtained from brain and liver tissue using Trizol (Invitrogen, Carlsbad, Calif.). cDNA was synthesised from 2 μg of total RNA using Capacity cDNA ReverseTranscription Kit (Applied Biosystems, Foster City, Calif.). Steady-state mRNA levels were estimated using Taqman probes (primer sequences available on request). All assays were run on an ABI Prism 7000 Sequense Detection System (Applied Biosystems; Foster City, Calif.). Estimation of a relative gene expression was performed using the comparative threshold cycle method, using hypoxathine-guanine phosphoribosyl transferase as endogenous control.

[2] = tested on: Cholesterol 24S-Hydroxylase (CYP46A1); test: Plasma oxysterol levels in voriconazole-treated mice
Description: Seven week old male C57/B6 J mice from Charles River were injected intraperitoneally with voriconazole (60 mg/kg or 75 mg/kg, corresponding to 0.6 and 0.75 ml, respectively, of the drug solution). The control mice were injected with the same solutions containing no voriconazole. The mice were sacrificed by cervical dislocation. Brain and liver were collected, snap frozen in liquid nitrogen and stored at −80° C.

## C[C@@H](c1ncncc1F)[C@](O)(Cn1cncn1)c1ccc(F)cc1F [voriconazole]
[1]
  effect on HMG CoA reductase mRNA levels: significant suppressive effect
  effect on expression of CYP46A1 mRNA: no significant effect
  effect on expression of HMG CoA synthase mRNA: no significant effect
[2]; pool of plasma, voriconazole-treated mice (control 18.8)
  plasma concentration of 24S-hydroxycholesterol: 13.2 ng/mL
[2]; voriconazole-treated mice
  effect on plasma level of 27-hydroxycholesterol: not significantly affected
[2]; voriconazole-treated mice (controls 52)
  plasma level of 27-hydroxycholesterol: 46 ng/mL
[2]; vs control pool
  suppression of plasma levels of 24S-hydroxycholesterol: about 30%

From patent US20170182047A9, “Post-Translational Regulation of Catalytic Activities of Cytochrome P450 46A1 and Uses Thereof” (The Board of Regents of the University of Texas System, priority 2007, published 2017)
